The target in test [1] is Melanocortin receptor 4 (Homo sapiens, UniProt P32245). The class given is functional, cell-based.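 Note: Cell-based assay with luminescence read-out, confirmatory dose-response testing for agonist activity of biased ligands at MC4R; human U2OS cells with tagged receptor and beta-arrestin; potency of agonists that increase receptor coupling to beta-arrestin.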
For test [2], the target named is Eukaryotic translation initiation factor 4E (Mus musculus, UniProt P63073). Briefly: blockers of eIF4G binding by eIF4E – biochemical, TR-FRET, dose response (AID 855).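 Note: potency for disrupting eIF4E binding to eIF4GI seen as loss of FRET.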 The class given is functional.
Sequence of Eukaryotic translation initiation factor 4E (P63073 whole entry): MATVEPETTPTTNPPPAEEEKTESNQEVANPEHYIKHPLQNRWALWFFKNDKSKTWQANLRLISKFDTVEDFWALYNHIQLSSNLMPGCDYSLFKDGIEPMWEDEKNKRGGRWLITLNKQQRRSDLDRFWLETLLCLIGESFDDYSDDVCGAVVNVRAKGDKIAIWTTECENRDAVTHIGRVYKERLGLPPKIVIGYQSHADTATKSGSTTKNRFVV
In test [3] the target is Dual specificity tyrosine-phosphorylation-regulated kinase 1A (Rattus norvegicus, UniProt Q63470). It counts as biochemical, Homo sapiens.
For test [4], the target named is T1, Long-chain-fatty-acid--AMP ligase FadD28 (Mycobacterium tuberculosis, UniProt P9WQ59).
T1 sequence (P9WQ59 whole entry): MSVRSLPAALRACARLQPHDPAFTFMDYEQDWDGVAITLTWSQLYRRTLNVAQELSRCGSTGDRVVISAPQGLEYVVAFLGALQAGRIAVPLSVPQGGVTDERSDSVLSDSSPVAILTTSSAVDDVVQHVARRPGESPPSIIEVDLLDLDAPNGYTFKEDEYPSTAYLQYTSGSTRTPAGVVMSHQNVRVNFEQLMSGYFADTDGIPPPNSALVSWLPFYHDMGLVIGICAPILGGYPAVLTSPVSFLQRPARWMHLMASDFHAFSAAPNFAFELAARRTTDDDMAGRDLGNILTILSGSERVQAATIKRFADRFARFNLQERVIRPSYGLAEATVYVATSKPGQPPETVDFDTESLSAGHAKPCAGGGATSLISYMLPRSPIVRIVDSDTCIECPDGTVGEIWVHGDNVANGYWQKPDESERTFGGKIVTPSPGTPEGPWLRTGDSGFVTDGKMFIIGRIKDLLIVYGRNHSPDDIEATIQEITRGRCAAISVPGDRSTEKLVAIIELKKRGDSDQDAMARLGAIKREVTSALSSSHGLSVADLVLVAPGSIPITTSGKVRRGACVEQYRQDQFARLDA
Briefly: Fluorescence polarization aasay to screen for inhibitors that compete for the binding of FadD28 to a bisubstrate Measured in Biochemical System Using Plate Reader - 2147-01_Inhibitor_Dose_CherryPick_Activity. The class given is functional, Mycobacterium tuberculosis H37Rv.

The target of test [5] is T2, Short transient receptor potential channel 4 (Mus musculus, UniProt Q9QUQ5).
T2 sequence (Q9QUQ5 whole entry): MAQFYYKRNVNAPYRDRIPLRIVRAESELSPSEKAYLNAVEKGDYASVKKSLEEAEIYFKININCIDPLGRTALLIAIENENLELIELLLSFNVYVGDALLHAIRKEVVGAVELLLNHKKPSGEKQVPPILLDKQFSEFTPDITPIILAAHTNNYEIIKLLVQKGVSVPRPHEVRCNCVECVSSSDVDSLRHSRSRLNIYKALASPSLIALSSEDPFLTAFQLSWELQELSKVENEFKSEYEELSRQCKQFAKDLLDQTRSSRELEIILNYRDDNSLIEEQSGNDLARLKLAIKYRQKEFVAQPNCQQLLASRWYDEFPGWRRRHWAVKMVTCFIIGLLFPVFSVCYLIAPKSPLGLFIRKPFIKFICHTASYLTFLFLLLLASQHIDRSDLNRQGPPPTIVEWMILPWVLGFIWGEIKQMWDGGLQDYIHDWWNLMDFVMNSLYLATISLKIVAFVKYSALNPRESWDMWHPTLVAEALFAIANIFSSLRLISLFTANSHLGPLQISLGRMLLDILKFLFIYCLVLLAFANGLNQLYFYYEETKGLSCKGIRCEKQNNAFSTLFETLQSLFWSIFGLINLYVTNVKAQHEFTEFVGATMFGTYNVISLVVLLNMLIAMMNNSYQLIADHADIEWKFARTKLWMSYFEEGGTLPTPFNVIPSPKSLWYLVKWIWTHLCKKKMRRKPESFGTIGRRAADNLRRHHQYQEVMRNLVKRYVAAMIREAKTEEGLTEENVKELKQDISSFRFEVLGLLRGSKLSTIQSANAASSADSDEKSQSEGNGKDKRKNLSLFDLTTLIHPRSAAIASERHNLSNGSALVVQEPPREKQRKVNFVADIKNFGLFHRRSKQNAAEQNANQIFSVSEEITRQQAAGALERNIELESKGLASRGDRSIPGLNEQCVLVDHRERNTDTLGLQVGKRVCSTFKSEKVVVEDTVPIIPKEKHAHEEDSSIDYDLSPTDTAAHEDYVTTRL
Briefly: calcium entry via TRPC4 opening agents – cell-based, HEK293 TRPC4/mu-opioid, Fluo-4 calcium, dose response (AID 434937). The class given is functional.

Test [6] deals with T3, High affinity choline transporter 1 (Homo sapiens, UniProt Q9GZV3).
T3 sequence (Q9GZV3 whole entry): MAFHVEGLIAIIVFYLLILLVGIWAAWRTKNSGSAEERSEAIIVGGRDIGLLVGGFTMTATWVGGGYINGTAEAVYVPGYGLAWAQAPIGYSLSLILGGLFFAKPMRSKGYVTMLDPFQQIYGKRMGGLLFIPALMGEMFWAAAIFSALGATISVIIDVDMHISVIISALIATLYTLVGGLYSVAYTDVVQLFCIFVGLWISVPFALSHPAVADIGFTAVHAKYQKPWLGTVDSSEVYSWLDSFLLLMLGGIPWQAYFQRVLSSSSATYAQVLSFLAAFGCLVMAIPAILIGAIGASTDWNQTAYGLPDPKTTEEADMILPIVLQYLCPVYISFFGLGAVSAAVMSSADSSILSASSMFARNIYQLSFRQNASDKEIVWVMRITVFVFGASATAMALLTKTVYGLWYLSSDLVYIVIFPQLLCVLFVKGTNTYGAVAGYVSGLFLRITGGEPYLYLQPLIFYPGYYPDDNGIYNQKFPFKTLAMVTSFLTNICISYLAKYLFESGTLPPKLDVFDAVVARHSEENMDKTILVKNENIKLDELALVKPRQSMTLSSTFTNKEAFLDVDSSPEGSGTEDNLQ
The experiment in a line: human choline transporter blockers, potency – cell-based, 5-point CRC, membrane potential dye, dose response (AID 504840). It counts as functional.

The target of test [7] is T4, Adenosylmethionine-8-amino-7-oxononanoate aminotransferase (Mycobacterium tuberculosis, UniProt P9WQ81).
T4 sequence (P9WQ81 whole entry): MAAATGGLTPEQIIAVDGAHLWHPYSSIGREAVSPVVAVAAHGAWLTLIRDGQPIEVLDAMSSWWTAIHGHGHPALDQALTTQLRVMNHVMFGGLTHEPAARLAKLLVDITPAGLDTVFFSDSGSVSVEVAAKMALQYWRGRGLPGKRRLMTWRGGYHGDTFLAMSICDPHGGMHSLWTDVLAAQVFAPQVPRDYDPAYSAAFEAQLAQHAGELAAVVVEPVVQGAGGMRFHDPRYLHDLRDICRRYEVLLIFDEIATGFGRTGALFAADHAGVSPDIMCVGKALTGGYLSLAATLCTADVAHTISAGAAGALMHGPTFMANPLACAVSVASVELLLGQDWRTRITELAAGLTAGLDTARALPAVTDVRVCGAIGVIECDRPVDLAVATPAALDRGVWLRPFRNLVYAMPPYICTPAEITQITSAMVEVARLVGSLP
The experiment in a line: Mycobacterium tuberculosis BioA enzyme inhibitor Measured in Biochemical System Using Plate Reader - 2163-02_Inhibitor_Dose_CherryPick_Activity. The class given is functional, Mycobacterium tuberculosis UT205.

The nature of test [8]: cells. It counts as functional.
A short description of test [9]: bead-based luminescence quenchers, dual-tagged ARNT – biochemical, AlphaScreen, cherry-pick, artefact control for ARNT-TACC3 interaction inhibitor project, dose response (AID 651705).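 Note: AlphaScreen bead proximity signal that flags compounds interfering with the detection technology; potency reflects signal decrease which marks the compound as an assay artifact.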 It counts as functional.
The target of test [10] is 26S proteasome non-ATPase regulatory subunit 14 (Homo sapiens, UniProt O00487). The experiment in a line: inhibition of proteasome subunit RPN11 – biochemical, fluorescence polarization, uHTS hits, confirmation (AID 602368). The class given is functional. (In fluorescence polarisation assays a small probe gives low polarisation when free and higher when bound to something large.)
Sequence of 26S proteasome non-ATPase regulatory subunit 14 (O00487 whole entry): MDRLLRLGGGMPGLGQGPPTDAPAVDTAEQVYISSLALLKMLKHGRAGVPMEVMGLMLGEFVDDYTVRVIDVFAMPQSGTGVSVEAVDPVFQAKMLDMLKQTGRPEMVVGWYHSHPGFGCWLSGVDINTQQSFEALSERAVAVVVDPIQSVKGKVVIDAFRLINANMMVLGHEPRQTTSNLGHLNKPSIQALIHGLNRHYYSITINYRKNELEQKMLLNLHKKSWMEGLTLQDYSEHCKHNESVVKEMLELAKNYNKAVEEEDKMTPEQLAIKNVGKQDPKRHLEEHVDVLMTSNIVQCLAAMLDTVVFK

Test [11] has as its target Prothrombin (Bos taurus, UniProt P00735). The experiment in a line: thrombin protease inhibitors – biochemical, fluorescence polarization, uHTS hits, dose response (AID 602369). It counts as functional.
Test [12] concerns the target 72 kDa type IV collagenase (Homo sapiens, UniProt P08253). The experiment in a line: Dose Response validation of uHTS RPN11 inhibitor hits using a MMP-2 Fluorescence assay. The class given is functional.
The target of test [13] is SUMO-activating enzyme (Homo sapiens, UniProt Q9UBT2). The experiment in a line: blockers of UBC9-mediated SUMO conjugation – biochemical, AlphaScreen, SUMOylation inhibitor project, confirmation (AID 2018). It counts as functional.
Sequence of SUMO-activating enzyme (Q9UBE0 whole entry): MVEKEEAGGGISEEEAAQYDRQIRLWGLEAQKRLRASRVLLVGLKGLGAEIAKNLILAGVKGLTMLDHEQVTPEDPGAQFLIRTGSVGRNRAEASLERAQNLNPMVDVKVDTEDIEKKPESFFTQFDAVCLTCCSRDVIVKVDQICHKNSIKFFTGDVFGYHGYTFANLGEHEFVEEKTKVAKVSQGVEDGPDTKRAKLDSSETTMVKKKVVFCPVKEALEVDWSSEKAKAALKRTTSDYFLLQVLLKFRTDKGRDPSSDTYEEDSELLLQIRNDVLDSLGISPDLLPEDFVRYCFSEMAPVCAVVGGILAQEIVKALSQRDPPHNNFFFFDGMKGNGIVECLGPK
Sequence of SUMO-activating enzyme (Q9UBT2 whole entry): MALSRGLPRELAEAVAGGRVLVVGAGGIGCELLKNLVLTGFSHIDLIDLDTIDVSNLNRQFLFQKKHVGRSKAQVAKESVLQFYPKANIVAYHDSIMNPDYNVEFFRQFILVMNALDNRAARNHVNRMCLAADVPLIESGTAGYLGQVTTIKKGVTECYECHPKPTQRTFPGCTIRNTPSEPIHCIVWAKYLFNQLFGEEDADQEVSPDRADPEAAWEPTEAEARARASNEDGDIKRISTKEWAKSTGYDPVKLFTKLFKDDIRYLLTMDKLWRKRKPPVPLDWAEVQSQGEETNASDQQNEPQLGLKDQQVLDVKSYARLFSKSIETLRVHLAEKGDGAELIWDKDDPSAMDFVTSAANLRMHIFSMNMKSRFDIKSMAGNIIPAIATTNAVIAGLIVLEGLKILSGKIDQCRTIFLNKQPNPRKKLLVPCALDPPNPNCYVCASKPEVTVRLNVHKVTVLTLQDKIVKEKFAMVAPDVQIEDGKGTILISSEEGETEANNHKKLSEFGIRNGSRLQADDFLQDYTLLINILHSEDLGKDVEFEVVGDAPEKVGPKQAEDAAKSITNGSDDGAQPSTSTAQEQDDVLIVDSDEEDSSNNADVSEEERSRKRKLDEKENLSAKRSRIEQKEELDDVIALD
In test [14] the target is FAD-linked sulfhydryl oxidase ALR (Homo sapiens, UniProt P55789). The experiment in a line: ALR-catalysed DTT oxidation blockers – biochemical, H2O2 detection, luminescence, cherry-pick, dose response (AID 493248).
Sequence of FAD-linked sulfhydryl oxidase ALR (P55789 whole entry): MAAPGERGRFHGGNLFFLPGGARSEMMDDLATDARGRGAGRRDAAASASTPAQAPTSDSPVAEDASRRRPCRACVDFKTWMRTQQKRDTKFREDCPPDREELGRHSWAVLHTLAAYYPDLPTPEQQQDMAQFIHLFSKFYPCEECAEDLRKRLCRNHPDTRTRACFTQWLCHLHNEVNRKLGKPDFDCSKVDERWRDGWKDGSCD

Active and inactive are the calls of the source.

Sequence of 72 kDa type IV collagenase (P08253 whole entry): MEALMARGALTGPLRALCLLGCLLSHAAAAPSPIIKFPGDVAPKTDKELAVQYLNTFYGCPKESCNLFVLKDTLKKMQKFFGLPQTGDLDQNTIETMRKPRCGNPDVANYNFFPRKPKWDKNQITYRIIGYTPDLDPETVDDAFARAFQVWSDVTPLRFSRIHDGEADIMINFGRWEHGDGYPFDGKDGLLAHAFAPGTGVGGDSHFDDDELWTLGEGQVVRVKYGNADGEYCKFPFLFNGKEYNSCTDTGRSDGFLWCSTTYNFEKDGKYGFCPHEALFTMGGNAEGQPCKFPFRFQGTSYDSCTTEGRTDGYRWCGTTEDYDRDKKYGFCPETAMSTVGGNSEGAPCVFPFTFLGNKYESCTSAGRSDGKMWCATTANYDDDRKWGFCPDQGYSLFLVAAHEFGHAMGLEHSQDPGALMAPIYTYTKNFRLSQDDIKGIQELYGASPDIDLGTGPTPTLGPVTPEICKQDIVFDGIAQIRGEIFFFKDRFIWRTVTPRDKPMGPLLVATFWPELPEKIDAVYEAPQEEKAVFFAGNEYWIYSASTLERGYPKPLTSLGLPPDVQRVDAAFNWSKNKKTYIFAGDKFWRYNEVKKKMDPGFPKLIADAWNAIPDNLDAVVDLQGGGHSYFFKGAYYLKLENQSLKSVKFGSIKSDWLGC
Sequence of Melanocortin receptor 4 (P32245 whole entry): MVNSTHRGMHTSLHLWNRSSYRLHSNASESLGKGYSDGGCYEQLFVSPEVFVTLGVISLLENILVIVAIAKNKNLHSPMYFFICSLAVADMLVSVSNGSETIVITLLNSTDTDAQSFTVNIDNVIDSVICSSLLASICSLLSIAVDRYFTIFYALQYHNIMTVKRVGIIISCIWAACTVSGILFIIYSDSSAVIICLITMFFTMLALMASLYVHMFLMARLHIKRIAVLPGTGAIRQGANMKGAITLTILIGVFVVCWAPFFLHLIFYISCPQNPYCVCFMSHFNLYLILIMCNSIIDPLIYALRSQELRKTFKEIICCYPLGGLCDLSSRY

For the compound `CCn1c(SCC(=O)Nc2ccc(C(C)=O)cc2)nc2nc3c(cc2c1=O)CCCC3`, the EC50 (in general, the concentration at which the effect is half-maximal) in [1] was > 89.2 µM (inactive). Moreover, the IC50 (in general, the concentration needed to halve the response being measured) in test [2] is > 64 µM (inactive). Consider `COc1ccc2cc(-c3cccnc3)ncc2c1`, for which the AC50 (as a rule, the midpoint of the concentration-response curve, whichever way the signal moves) in test [3] is 6.39 µM (active). In the case of `CC(Oc1ccccc1)C(=O)OCC(=O)N1CC(=O)Nc2ccccc21` (centres undefined), in test [4], the AC50 is > 100 µM (inactive). Take `CN1CCN(c2ccc(C(F)(F)F)cc2NC(=O)Nc2ccccc2)CC1`: the EC50 in [5] is 4.73 µM (active).

With `CCCCNC(=O)c1ccc2c(OCC)n(CCCC)nc2c1`, the IC50 in [6] is 13.1 µM (active). As to `Fc1ccc(-c2nnc(CN3CCN(c4ncc(C(F)(F)F)cc4Cl)CC3)o2)cc1`, the EC50 in test [5] is 5.31 µM (active). Turning to `CN1c2ccc(-c3ccccc3)cc2[C@H]2[C@H](CCN2C(=O)Cc2ccccn2)[C@H]1CO`, the AC50 in [7] is 6.13 µM (active). For the compound `Clc1cccc(-c2ccc(CNCc3ccccn3)o2)c1`, the IC50 in test [8] is 3.05 µM (active). Moreover, the AC50 in test [9] was 94.4 µM (active). As to `O=C(CSc1nc2cc(C(=O)O)ccc2c(=O)n1-c1ccc(F)cc1)Nc1ccc(F)c(F)c1F`, the AC50 in [7] is 2.65 µM (active). `CC1(C)Oc2ccc3ccc(=O)oc3c2C(/C=N/c2ccc(O)cc2)=C1O`: in test [1], the EC50 is > 89.2 µM (inactive). In the case of `Fc1ccc(C2CCNCC2COc2ccc3c(c2)OCO3)cc1` (centres undefined), the EC50 in test [5] was 10.6 µM (active).

With `COc1ccccc1NC(=O)Nc1nc(C(N)Cc2ccc(Cl)cc2)cs1` (centres undefined), the EC50 in test [1] is > 89.2 µM (inactive). On to `COc1ccc(C(CNCC(=O)Nc2ccccc2F)N(C)C)cc1` (centres undefined), for which the EC50 in test [5] is 0.133 µM (active). With `CCn1cc(CNC(=O)c2cc(COc3ccc(F)cc3F)on2)cn1`, the half-maximal inhibitory concentration (IC50) in [6] is 18.2 µM (active). Consider `Cc1cc(C)cc(-n2cccc2/C=C2/C(=N)N3C(=NC2=O)SN=C3S(C)(=O)=O)c1`, for which the values for the IC50 in test [10], in test [11] and in [12] were 37.6 µM (active), 74.6 µM (active) and 81.6 µM (active), respectively.

In the case of `C(=C\c1ccco1)/C1=NN(c2ccccc2)C(c2ccco2)C1` (centres undefined), the IC50 was 22.8 µM (active) in [10], 14.8 µM (active) in [11] and > 100 µM (inactive) in test [12]. In the case of `COc1ccccc1NC(=O)c1sc2ncn(CC(=O)Nc3ccccc3)c(=O)c2c1C`, the IC50 in test [13] was 20.4 µM (active). Consider `O=c1[nH]c(N2CCN(Cc3ccc4c(c3)OCO4)CC2)nc2c1CCC2`, for which, in test [7], the AC50 was 0.93 µM (active). As to `Cc1ccc(-n2cccc2/C=C2/C(=N)N3C(=NC2=O)SN=C3S(C)(=O)=O)cc1`, the IC50 in [10] was 26.2 µM (active); in test [11] it was 86.9 µM (active); in test [12], > 100 µM (inactive). Further, the AC50 in test [14] is 0.598 µM (active). As for `Cc1ccc2cc3c(NS(=O)(=O)c4cccc5nonc45)nn(CC(C)C)c3nc2c1`, in [6], the IC50 is 13.8 µM (active).
